This is an account of results in US5486528A, “Basic ethers and process for the preparation thereof” (Egis Gyogyszergyar Rt., priority 1993, dated 1996).

One data set concerns mice. In words: Effect on the spontaneous motor activity (Borsy), sedative effect. Type of data set: in vivo, mouse. Conditions: for ED50: Mus musculus, po, 0.5 h, read-out: ID50, spontaneous motor activity. How it is done:
2.1. Effect on the spontaneous motor activity
The test was carried out according to the method of Borsy et al. Groups consisting of 3 mice each were treated orally with different doses of the compounds to be tested. Then the test animals were placed into a 10-channel Dews system equipment. In this equipment the number of interruptions of infrared beam within 30 minutes was counted. […] Int. Pharmacodyn. 124, 1 (1960)].

Data set [1] has as its system Male Wistar rats. Briefly: Conditioned avoidance response inhibition, antipsychotic effect. The class given is in vivo, rat (Wistar). As to conditions: rat, 30 mg/kg p.o.; ++ = p < 0.05. Here is the method:
Conditioned avoidance response inhibition
The antipsychotic (neuroleptic) effect was measured by the inhibition of the learned conditioned avoidance reflex. The male Wistar rats, used for the study, were of 120-150 g body weight at the commencement of learning. A shuttle box was used as experimental device; it consists of two parts, 24×24.5×23 cm each, separated by a wall with a 6×9 cm gate. In response to a sutiable warning stimulus, in order to avoid the punishing (unconditioned) stimulus, animals within the box passed through the gate from one part to the other. The warning, i.e. conditioned stimulus (CS), a white light (1 Hz) blinking for 15 seconds, was applied at the place of the actual animal existence. The unconditioned stimulus (US), in form of 0.6 mA intensity electric shock, was randomly applied to the paw during the last 5 seconds of the conditioned stimulus. The animal's movement during the CS and US from one part of the box to the other, was defined as avoidance and escape responses, respectively. Both responses ceased the actual stimulus and stopped the trial. The time elapsed until the next trial (intertrial interval, ITI) was 15 seconds. While one experiment was carried out daily, an experiment consisted of 80 trials. Learning efficiency was expressed as percentage of the successful to the total avoidances. Effect of the neuroleptic drugs was examined in animals with stabilized conditioned reflexes and with at least 75% learning efficiency. Dosing was carried out once a week, one hour before the measurement in the shuttle box. To calculate the neuroleptic effect (50% inhibiting dose, ID50) , results obtained after the treatment were compared to those obtained on the previous day (controls).

For data set [2], the system named is Male Wistar rats. In words: Vogel test (drinking conflict test), anxiolytic effect. The class given is in vivo, rat (Wistar). Conditions: ip, 0.5 h; rat, intraperitoneally, half an hour before testing; read-out: MED (minimum effective dose), Vogel test. How it is done: 1.1. Vogel test (drinking conflict test)
The anxiolytic effect was tested by using the method of Vogel et al. Male Wistar rats of 160 to 180 g body weight were kept free of food and drinking water for 24 and 48 hours, respectively. Test and carrier substances were administered intraperitoneally half an hour before testing. Animals within the experimental chamber were provided with drinking water through an inserted tube. After the animals' each twenty lapping for water the device emitted a 2 mA intensity electric shock through the drinking tube. During 5 minutes the shocks tolerated by the animals in order to quench their thirst were counted. The effect of treatment was expressed as the % increase of the tolerated shocks. The minimum effective dose (MED) was determined for each test compound [Volge, J. R., Beer, B., Clody, D. E.: Psychopharmacologia (Berl.) 21, 1 (1971)].

Data set [3] in a line: Acute toxicity on mice (Litchfield and Wilcoxon). As to conditions: mouse, in vivo, ip.
Data set [4] can be described thus: Acute toxicity on mice (Litchfield and Wilcoxon). As to conditions: mouse, in vivo, po. Here is the method:
The test was carried out according to the method of Litchfield and Wilcoxon [Litchfield, J. T. and Wilcoxon, F. W.: J. Pharmacol. Exp. Ther., 96, 99 (1949)] by using white mice belonging to the CFLP strain and weighing 10 to 22 g, 10 animals per dose. The test compounds were administered orally in a volume of 20 cm^3 /kg.

The next data set concerns gastric-acid secretion. Briefly: Gastric-acid-secretion test (Shay). Type of data set: in vivo, rat. As to conditions: po, read-out: Acid-secretion inhibition, ED50. Here is the method:
2. […] The liberated gastric-acid content was determined by titration 4 hours after the ligature of the duodenum.

Data set [5] has as its system erosion of the stomach wall. In words: Cytoprotective effect, ethanol erosion (Robert). Type of data set: in vivo. As to conditions: rat; for ED50: po; for Ratio of acid-secretion inhibition and erosion inhibition: ratio of ED50 values. How it is done:
3. The cytoprotective effect was determined according to the method of Robert [Robert, A.: Cytoprotection by prostaglandins. […] Rats weighing 200 to 250 g were used as test animals. 1 cm^3 of abs. ethanol was introduced to the stomach to produce an erosion of the stomach wall. The length and frequency of the lesions (erosion index and frequency) were measured and the percentage inhibition of lesion formation compared with vehicle-treated animals was calculated.

The next data set has as its target T1, H^+ /K^+ -ATP-ase (Sus scrofa, UniProt P19156).
T1 construct: on partially purified pig's microsome specimen; from tissue; host or cells: pig stomach, partially purified microsomes
In words: H+/K+-ATP-ase inhibition on partially purified pig's microsome specimen. The class given is biochemical. Here is the method:
1. H^+ /K^+ -ATP-ase inhibition on pig's stomach
The test was carried out according to the method of Rabon and Sachs [E. C. Rabon et al.: Preparation of gastric H^+ K^+ -ATP-ase, Methods in Enzymology, 157, 649-651 (1988)]. The activity of the prepared enzyme was measured both in the presence as in the absence of K^+ ions. The difference in the libaration of phosphorus representing the activity of the enzyme was measured.

The mark [6] stands for this setting: rat, p.o., 4 hours after ligature.

Like-named read-outs stand apart in the source and are kept apart here. A value given as a limit tells only on which side of the number the result lay.

T1 sequence (P19156 2-1034 limits assumed): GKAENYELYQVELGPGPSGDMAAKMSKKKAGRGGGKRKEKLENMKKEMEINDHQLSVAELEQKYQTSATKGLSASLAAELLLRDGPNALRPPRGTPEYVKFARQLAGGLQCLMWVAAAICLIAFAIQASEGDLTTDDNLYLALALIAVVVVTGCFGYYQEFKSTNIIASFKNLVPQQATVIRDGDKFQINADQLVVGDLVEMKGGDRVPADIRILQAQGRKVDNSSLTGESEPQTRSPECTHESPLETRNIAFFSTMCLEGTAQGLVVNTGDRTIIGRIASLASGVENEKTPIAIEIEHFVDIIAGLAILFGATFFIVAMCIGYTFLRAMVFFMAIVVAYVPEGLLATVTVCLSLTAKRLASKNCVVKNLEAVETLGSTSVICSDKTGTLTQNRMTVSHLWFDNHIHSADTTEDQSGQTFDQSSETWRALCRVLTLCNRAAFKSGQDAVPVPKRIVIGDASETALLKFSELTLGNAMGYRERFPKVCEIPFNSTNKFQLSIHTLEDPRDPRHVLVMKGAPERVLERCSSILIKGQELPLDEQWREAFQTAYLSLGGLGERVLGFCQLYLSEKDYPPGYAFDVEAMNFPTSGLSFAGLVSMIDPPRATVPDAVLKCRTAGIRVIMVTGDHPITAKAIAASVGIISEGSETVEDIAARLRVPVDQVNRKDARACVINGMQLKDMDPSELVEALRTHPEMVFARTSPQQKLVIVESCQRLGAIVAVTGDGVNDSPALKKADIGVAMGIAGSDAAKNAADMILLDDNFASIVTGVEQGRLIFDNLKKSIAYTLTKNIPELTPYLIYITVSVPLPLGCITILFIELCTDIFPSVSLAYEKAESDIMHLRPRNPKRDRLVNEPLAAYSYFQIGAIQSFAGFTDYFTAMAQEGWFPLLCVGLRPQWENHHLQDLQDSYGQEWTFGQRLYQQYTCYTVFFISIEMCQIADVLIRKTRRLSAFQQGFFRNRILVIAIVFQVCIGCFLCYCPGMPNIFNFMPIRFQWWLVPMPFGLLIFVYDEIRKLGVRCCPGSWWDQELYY
T1 sequence (P18434 whole entry partner): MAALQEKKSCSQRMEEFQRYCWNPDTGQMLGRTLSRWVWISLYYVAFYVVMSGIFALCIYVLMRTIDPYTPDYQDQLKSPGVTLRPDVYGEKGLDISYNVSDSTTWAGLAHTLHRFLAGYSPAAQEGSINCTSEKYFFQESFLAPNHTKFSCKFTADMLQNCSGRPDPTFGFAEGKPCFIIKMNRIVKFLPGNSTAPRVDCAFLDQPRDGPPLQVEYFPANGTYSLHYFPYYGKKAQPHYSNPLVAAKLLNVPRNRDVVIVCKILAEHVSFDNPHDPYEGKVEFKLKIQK

On to `CCC(/C=C/c1ccccc1)=N\OCC(C)CN(C)C` (racemic) [Example 18, (R,S)-1-Phenyl-3-(E)-[3-(dimethylamino)-2-methylpropoxyimino]-1-(E)-pentene], for which the “inhibition of spontaneous motor activity at 100 mg/kg” value in the data set on mice (mice, orally, 100 mg/kg) is recorded as 54%. In the data set with Male Wistar rats [1], the “Inhibition of the conditioned reflex (%)” value amounted to 12%. In the data set on Male Wistar rats [2], the minimal effective dose was 1 mg/kg.
`CCC(/C=C/c1ccc(Cl)cc1)=N\OCC(C)CN(C)C` (racemic) [Example 19, (R,S)-1-(4-Chlorophenyl)-3-(E)-[3-(dimethylamino)-2-methylpropoxyimino]-1-(E)-pentene]: the ED50 with mice (mice, orally, 30 minutes) is greater than 100 mg/kg. Further, in the data set with Male Wistar rats [1], the “Inhibition of the conditioned reflex (%)” value was 19%. The minimal effective dose in the data set on Male Wistar rats [2] is 10 mg/kg.
By LD50 is commonly meant the dose expected to kill half of the subjects tested. Consider `CC(C)CCC(/C=C/c1ccc(Cl)cc1)=N\OCC(O)CNC1CCCCC1` (racemic) [Example 36, (R,S)-1-(4-Chlorophenyl)-6-methyl-3-(E)-[3-(cyclohexylamino)-2-hydroxypropoxyimino]-1-(E)-heptene], for which the median lethal dose (LD50) at 336 h is 30 to 100 mg/kg in data set [3] (mice, 14 days observation) and greater than 1000 mg/kg in data set [4] (mice, 14 days observation).
The IC50 is the concentration that gives 50% inhibition. Higher therefore signals a need for much substance. As for `CC(C)CCC(/C=C/c1ccc(Cl)cc1)=N\OCC(O)CN1CCCCC1` (racemic) [Example 37, (R,S)-1-(4-Chlorophenyl)-6-methyl-3-(E)-[2-hydroxy-3-(1-piperidinyl)-propoxyimino]-1-(E)-heptene], the ED50 with gastric-acid secretion (setting [6]) was 30 to 100 mg/kg; in data set [5] (1 cm^3 abs. ethanol), 3 to 10 mg/kg. In data set [5] (p.o.), the “Ratio of acid-secretion inhibition and erosion inhibition” value was greater than 10. For the same molecule, the values for the 50% lethal dose (LD50) at 336 h in data set [3] and in data set [4] were 100 to 300 mg/kg and greater than 1000 mg/kg, respectively. For the same molecule, inhibition at H^+ /K^+ -ATP-ase was half-maximal at 21 µM (IC50).
With `CNC1=Nc2ccc(Cl)cc2C(c2ccccc2)=[N+]([O-])C1` [Chlorodiazepoxide, reference compound], in the data set on mice (mice, orally, 30 minutes), the ED50 amounted to 56 mg/kg.
For `CN/C(=N/CCSCc1nc[nH]c1C)NC#N` [Cimetidine, reference compound], the ED50 in the data set on gastric-acid secretion (Rattus norvegicus, 4 h) was 59.1 mg/kg; in data set [5] (1 cm^3 abs. ethanol) it was 100 to 200 mg/kg. The “Ratio of acid-secretion inhibition and erosion inhibition” value in data set [5] (p.o.) is listed as 0.3-0.6.
Turning to `CN1C(=O)CN=C(c2ccccc2)c2cc(Cl)ccc21` [Diazepam, reference compound], in the data set on mice, the ED50 was 23 mg/kg.
As to `CCCC(/C=C/c1ccccc1)=N\OCCN(CC)CC` [Example 1, 1-Phenyl-3-(E)-[2-(diethylamino)-ethoxyimino]-1-(E)-hexene], the ED50 in the data set with mice (mice, orally, 30 minutes) was greater than 100 mg/kg. Moreover, in the data set on Male Wistar rats [1], the “Inhibition of the conditioned reflex (%)” value turned out to be 10%. Further, the minimal effective dose with Male Wistar rats [2] was 30 mg/kg.
For `CCCCCCC(/C=C/c1ccc(Cl)cc1)=N\OCCN1CCCCC1` [Example 3, 1-(4-Chlorophenyl)-3-(E)-[2-(N-piperidinyl)-ethoxyimino]-1-(E)-nonene], the results for the ED50 (with gastric-acid secretion (setting [6]); in data set [5] (1 cm^3 abs. ethanol)) were 50 to 150 mg/kg and 2.5 mg/kg, respectively. The “Ratio of acid-secretion inhibition and erosion inhibition” value in data set [5] (p.o.) was greater than 20. For the same molecule, the values for the LD50 at 336 h in data set [3] and in data set [4] were 100 to 300 mg/kg and 500 to 1000 mg/kg, respectively. Further, on H^+ /K^+ -ATP-ase, half-maximal inhibition (IC50) was put at 10 µM.
Take `CC(C)CCC(/C=C/c1ccccc1)=N\OCCCN(C)C` [Example 5, 1-Phenyl-6-methyl-3-(E)-[3-(dimethylamino)-propoxyimino]-1-(E)-heptene]: the ED50 in the data set with mice (mice, orally, 30 minutes) was greater than 100 mg/kg. Besides, in the data set on Male Wistar rats [1], the “Inhibition of the conditioned reflex (%)” value is listed as 16%. Besides, the minimal effective dose in the data set with Male Wistar rats [2] was greater than 30 mg/kg.
The like results for `CCC(/C=C/c1ccc(Cl)cc1)=N\OCCN(C)C` [Example 7, 1-(4-Chlorophenyl)-3-(E)-[2-(dimethylamino)-ethoxyimino]-1-(E)-pentene] were, in that order, greater than 100 mg/kg, 22% and 3 mg/kg.
The matching figures for `CC(C)CCC(/C=C/c1ccc(Cl)cc1)=N\OCCCN(C)C` [Example 13, 1-(4-Chlorophenyl)-6-methyl-3-(E)-[3-(dimethylamino)-propoxyimino]-1-(E)-heptene]: greater than 100 mg/kg, 12% and greater than 30 mg/kg.
The matching figures for `CCC(/C=C/c1ccccc1)=N\OCCN(C)C` [Example 14, 1-Phenyl-3-(E)-[2-(dimethylamino)-ethoxyimino]-1-(E)-pentene]: greater than 100 mg/kg, 18% and 10 mg/kg.
On to `CC(C)CCC(/C=C/c1ccc(Cl)cc1)=N\OCCN(C)C` [Example 15], for which, in the data set with mice (mice, orally, 30 minutes), the ED50 was greater than 100 mg/kg. Further, in the data set with Male Wistar rats [1], the “Inhibition of the conditioned reflex (%)” value is on record as 11%. The minimal effective dose with Male Wistar rats [2] worked out at 3 mg/kg.
`CC(C)CCC(/C=C/c1ccc(Cl)cc1)=N\OCCCN1CCCCCC1` [Example 35, 1-(Chlorophenyl)-6-methyl-3-(E)-[3-(hexahydro-1-H-azepinyl)-propoxyimino]-1-(E)-heptene]: the LD50 at 336 h in data set [3] is 30 to 100 mg/kg; in data set [4], greater than 1000 mg/kg.
Turning to `CC(C)CCC(/C=C/c1ccc(F)cc1)=N\OCCCN1CCCCC1` [Example 38, 1-(4-Fluorophenyl)-6-methyl-3-(E)-[3-(N-piperidinyl)-propoximino]-1-(E)-heptene], the results for the ED50 (in the data set on gastric-acid secretion (setting [6]); in data set [5] (1 cm^3 abs. ethanol)) were 37.7 mg/kg and 1.3 mg/kg, respectively. In data set [5] (p.o.), the “Ratio of acid-secretion inhibition and erosion inhibition” value amounted to 29.0. For the same molecule, the LD50 at 336 h in data set [3] was 100 to 300 mg/kg; in data set [4], 500 to 1000 mg/kg. Besides, the IC50 against H^+ /K^+ -ATP-ase was determined as 17 µM.
Consider `CC(C)CCC(/C=C/c1ccc(Cl)cc1)=N/OCCC1CCCN1C` (stereo not shown) [Example 40, 1-(4-Chlorophenyl)-6-methyl-3-(Z)-[2-(2-N-methylpyrrolidinyl)-ethoxyimino]-1-(E)-heptene], for which the ED50 with gastric-acid secretion (setting [6]) was less than 100 mg/kg; in data set [5] (1 cm^3 abs. ethanol) it was 0.9 mg/kg. The “Ratio of acid-secretion inhibition and erosion inhibition” value in data set [5] (p.o.) is reported as less than 100. The results for the median lethal dose (LD50) at 336 h in data set [3] and in data set [4] were 100 to 300 mg/kg and 1000 mg/kg, respectively. This molecule also returned an IC50 against H^+ /K^+ -ATP-ase of 10 µM.
On to `CC(C)CCC(/C=C/c1ccc(Br)cc1)=N\OCCCN1CCCCC1` [Example 42, 1-(4-Bromophenyl)-6-methyl-3-(E)-[(3-N-piperidinyl)-propoxyimino]-1-(E)-heptene], for which the results for the LD50 at 336 h in data set [3] and in data set [4] were 100 to 300 mg/kg and greater than 1000 mg/kg, respectively. Also, on H^+ /K^+ -ATP-ase, half-maximal inhibition (IC50) required 7 µM.
Consider `COc1ccc2[nH]c([S+]([O-])Cc3ncc(C)c(OC)c3C)nc2c1` (stereo not shown) [Omeprazole, reference compound], for which the ED50 with gastric-acid secretion (setting [6]) is 3.9 mg/kg; in data set [5] (1 cm^3 abs. ethanol), 4.5 mg/kg. Further, in data set [5] (p.o.), the “Ratio of acid-secretion inhibition and erosion inhibition” value is 0.9.
The like results for `CN1CCN(CC(=O)N2c3ccccc3C(=O)Nc3cccnc32)CC1` [Pirenzepine, reference compound] were, in that order, 7.9 mg/kg, 18.6 mg/kg and 0.4.
Turning to Sucralfate [reference compound], the “Ethanol erosion ED50” value in data set [5] (p.o., 1 cm^3 abs. ethanol) is 69.0.
